Target: Transient receptor potential cation channel subfamily V member 1 (Rattus norvegicus, UniProt O35433)
Sequence (O35433 whole entry): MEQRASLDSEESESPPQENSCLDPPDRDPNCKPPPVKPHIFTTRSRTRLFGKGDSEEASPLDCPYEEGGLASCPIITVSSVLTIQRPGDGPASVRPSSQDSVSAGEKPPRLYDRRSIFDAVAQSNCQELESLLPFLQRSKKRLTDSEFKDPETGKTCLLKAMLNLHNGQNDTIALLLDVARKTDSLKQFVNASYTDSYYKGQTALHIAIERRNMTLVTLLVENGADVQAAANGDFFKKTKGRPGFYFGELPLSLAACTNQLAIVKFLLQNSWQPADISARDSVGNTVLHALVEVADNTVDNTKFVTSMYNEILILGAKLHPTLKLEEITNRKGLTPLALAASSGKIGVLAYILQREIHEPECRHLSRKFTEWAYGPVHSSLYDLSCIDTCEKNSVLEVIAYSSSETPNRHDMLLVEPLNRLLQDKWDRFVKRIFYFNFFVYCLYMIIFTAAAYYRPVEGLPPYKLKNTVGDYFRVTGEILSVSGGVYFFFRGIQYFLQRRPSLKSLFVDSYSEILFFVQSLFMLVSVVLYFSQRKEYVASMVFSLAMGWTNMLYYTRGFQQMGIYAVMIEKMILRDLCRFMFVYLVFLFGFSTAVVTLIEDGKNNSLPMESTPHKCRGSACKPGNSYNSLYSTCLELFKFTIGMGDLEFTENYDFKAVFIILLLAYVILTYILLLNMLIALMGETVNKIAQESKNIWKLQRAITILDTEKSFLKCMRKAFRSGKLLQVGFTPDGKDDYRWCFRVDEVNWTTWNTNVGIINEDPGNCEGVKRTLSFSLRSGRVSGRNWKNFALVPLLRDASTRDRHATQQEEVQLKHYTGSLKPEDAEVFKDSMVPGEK

CC(C)(C)c1ccc(CNC(=S)NCc2ccc(NS(C)(=O)=O)c(F)c2)cc1 [JYL1421]
Ki: 9.2 nM
